Measurements taken from ChEMBL document CHEMBL1151681, “New Naphthalenyl Glucosides from the Roots of Juglans mandshurica” (J Nat Prod, 1996).
Values after ≈ are worked out from the molar mass of the structure shown.

Assays:
U-937 = assay: Cytotoxicity against human U937 cells by MTT assay; assay type: functional, cell-based
[1] = Cytotoxicity against human Hep3B cells by MTT assay; assay type: functional, cell-based, Hep 3B2

Structure (SMILES): O=C(OC[C@H]1O[C@@H](Oc2ccc(O)c3cccc(O)c23)[C@H](O)[C@@H](O)[C@@H]1O)c1cc(O)c(O)c(O)c1
- IC50 (U-937): 30 µg/mL (≈ 61.2 µM)
- IC50 [1]: > 100 µg/mL

Structure (SMILES): COc1cc(C(=O)OC[C@H]2O[C@@H](Oc3ccc(O)c4cccc(O)c34)[C@H](O)[C@@H](O)[C@@H]2O)cc(OC)c1O
- IC50 (U-937): 50 µg/mL (≈ 96.4 µM)
- IC50 [1]: > 100 µg/mL
